According to US7728107B2 (priority 2005, dated 2010):
Like-named read-outs stand apart in the source and are kept apart here.

Experiments:
[1] = target: T1, human 5-HT2A receptor (Homo sapiens, UniProt P28223); assay: cell-based; assay type: cell-based
T1 construct: expressed in transfected cells

[2] = system: canine 5-HT2B receptor; assay: biochemical; assay type: binding; settings: ratio of binding affinities canine vs human 5-HT2B
[3] = target: T2, canine 5-HT2B receptor (Canis lupus familiaris, UniProt Q50DZ8); assay: cell-based; assay type: cell-based; set-up: Apparent equilibrium dissociation constant KD; other: canine 5-HT2B, COS-7 membranes, mean ± S.E.M. (n = 3 to 6); other: COS-7 membranes; head prints [^3H]-ketanserin; mean ± S.E.M of 3-8 experiments; KD of radioligand; other: canine 5-HT2B, transfected COS-7 membranes; other: HEK-293, Ca^2+ FLIPR, mean ± S.E.M of 3 to 6 experime; settings: for Rel. eff. c5-HT2B: HEK-293, fraction of response to 10 μM 5-HT
[4] = target: T3, human 5-HT2B receptor (Homo sapiens, UniProt P41595); assay: biochemical; assay type: binding
T3 construct: expressed in transfected cells

[5] = target: T4, canine 5-HT2A receptor (Canis lupus familiaris, UniProt O46635); assay: cell-based; assay type: cell-based; set-up: The resulting 5-HT2A full length cDNA was cloned into the pCIneo vector; expressed in transfected cells; settings: for Rel. eff. c5-HT2A: HEK-293, fraction of response to 10 μM 5-HT; for agonist potency at canine 5-HT2A compared to human 5-HT2A: Table 3
[6] = target: T2, canine 5-HT2B receptor; assay: biochemical; assay type: binding; set-up: Apparent equilibrium dissociation constant KD; other: canine 5-HT2B, COS-7 membranes, mean ± S.E.M. (n = 3 to 6); other: COS-7 membranes; head prints [^3H]-ketanserin; mean ± S.E.M of 3-8 experiments; KD of radioligand; other: canine 5-HT2B, transfected COS-7 membranes; other: HEK-293, Ca^2+ FLIPR, mean ± S.E.M of 3 to 6 experime
[7] = target: T4, canine 5-HT2A receptor; assay: biochemical
[8] = target: T3, human 5-HT2B receptor; assay: cell-based; assay type: cell-based; settings: for Rel. eff h5-HT2B: fraction of response to 10 μM 5-HT
[9] = target: T1, human 5-HT2A receptor; assay: biochemical; assay type: binding
[10] = target: T4, canine 5-HT2A receptor; settings: for Ratio c5-HT2A vs. h5-HT2A: ratio of binding affinities canine vs human 5-HT2A
[11] = system: non-transfected cells (HEK-293, NIH3T3 or CHO); assay: FLIPR Ca^2+ assay in non-transfected cells; assay type: cell-based; settings: non-transfected HEK-293, CHO or NIH3T3 cells
Protocol: Dye-loaded cells were plated onto 96-well ViewPlates (Packard, Meriden, Conn.) and incubated at 37° C. and 5% CO2 for one hour. Once dye-loaded, dye media was replaced with serum-free DMEM/F-12. […] Ligand-induced Ca^2+ release was measured using a Fluorometric Imaging Plate Reader (FLIPR, Molecular Devices, Sunnyvale, Calif.). Functional responses were measured as peak fluorescence intensity minus basal. The concentration of agonist that produced a half-maximal response is represented by the EC50 value. […] Antagonistic potency values were converted to apparent pKB values using a modified Cheng-Prusoff correction. Apparent pKB=−log IC50/1+[conc agonist/EC50]. Data are expressed as mean±S.E.M.
None of the compounds (10 μM) tested elicited a response in non-transfected cells (HEK-293, NIH3T3 or CHO). In addition, none of the antagonists tested increased Ca^2+ in any of the transfected cell types.

[12] = target: T4, canine 5-HT2A receptor; assay: Saturation binding of [^3H]5-HT to membranes of COS-7 cells transfected with canine 5-HT2A receptor
[13] = HEK-293, Ca^2+ FLIPR, apparent pKB, mean ± S.E.M of 3 to 6 experiments, read-out: Antagonist affinity pKB c5-HT2B (converted)
[14] = read-out: Affinity constant pKI h5-HT2B (converted)
[15] = read-out: Affinity constant pKI c5-HT2B (converted)
[16] = CHO, Ca^2+ FLIPR, apparent pKB, mean ± S.E.M of 3 to 6 experiments, read-out: Antagonist affinity pKB h5-HT2B (converted)
[17] = HEK-293, Ca^2+ FLIPR, apparent pKB, mean ± S.E.M of 3 to 6 experiments

T1 sequence (P28223 whole entry): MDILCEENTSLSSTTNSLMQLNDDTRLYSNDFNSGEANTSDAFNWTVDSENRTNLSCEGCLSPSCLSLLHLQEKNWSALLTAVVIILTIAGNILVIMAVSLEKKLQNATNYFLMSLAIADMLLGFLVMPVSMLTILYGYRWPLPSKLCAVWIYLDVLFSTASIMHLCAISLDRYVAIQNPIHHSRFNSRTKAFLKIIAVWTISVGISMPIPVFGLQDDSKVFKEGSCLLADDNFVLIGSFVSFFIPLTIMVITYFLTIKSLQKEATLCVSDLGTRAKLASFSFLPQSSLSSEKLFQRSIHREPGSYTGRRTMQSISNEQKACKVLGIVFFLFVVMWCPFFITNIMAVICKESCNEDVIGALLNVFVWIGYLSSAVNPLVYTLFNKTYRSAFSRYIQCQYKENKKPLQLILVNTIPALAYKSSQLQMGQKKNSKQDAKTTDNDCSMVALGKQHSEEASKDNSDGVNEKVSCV
T3 sequence (P41595 whole entry): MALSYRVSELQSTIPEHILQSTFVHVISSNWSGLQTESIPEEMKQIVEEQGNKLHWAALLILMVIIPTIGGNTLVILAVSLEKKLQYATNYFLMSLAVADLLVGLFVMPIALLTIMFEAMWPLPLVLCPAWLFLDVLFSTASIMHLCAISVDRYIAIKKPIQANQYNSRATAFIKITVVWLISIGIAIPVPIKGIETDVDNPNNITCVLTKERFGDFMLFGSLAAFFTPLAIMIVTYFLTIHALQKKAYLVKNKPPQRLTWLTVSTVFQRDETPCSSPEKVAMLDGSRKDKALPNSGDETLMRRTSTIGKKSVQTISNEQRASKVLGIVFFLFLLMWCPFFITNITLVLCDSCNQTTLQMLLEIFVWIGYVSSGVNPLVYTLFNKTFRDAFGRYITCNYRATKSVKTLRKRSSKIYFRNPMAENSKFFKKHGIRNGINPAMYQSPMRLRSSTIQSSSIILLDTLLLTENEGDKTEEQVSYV
T4 sequence (O46635 whole entry): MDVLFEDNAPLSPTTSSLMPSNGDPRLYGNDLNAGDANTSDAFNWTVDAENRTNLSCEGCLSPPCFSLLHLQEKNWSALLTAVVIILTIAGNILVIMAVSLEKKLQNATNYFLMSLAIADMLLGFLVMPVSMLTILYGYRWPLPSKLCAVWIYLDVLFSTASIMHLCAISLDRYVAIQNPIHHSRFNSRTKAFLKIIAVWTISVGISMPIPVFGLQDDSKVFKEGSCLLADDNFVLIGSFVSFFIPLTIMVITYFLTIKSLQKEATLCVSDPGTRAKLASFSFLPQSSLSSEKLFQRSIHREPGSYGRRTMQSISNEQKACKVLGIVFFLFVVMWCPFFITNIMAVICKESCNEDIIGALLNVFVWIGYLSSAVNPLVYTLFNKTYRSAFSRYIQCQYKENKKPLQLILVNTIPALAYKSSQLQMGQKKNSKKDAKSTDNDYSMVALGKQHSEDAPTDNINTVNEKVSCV

`NCCc1c[nH]c2ccc(C(N)=O)cc12` [5-CT, 5-carboxyamidotryptamine] was tested, and the “Rel. eff. h5-HT2A” value [1] was 0.70 ± 0.13, the “Ratio c5-HT2B vs. h5-HT2B” value [2] was 1.20 and the “Rel. eff. c5-HT2B” value [3] was 1.19 ± 0.05. For the same compound, the Ki [4] was 61.7 nM, the “Rel. eff. c5-HT2A” value [5] was 0.94 ± 0.08 and the “agonist potency at canine 5-HT2A compared to human 5-HT2A” value ([5]; functional Ca^2+ assay) was “higher potencies”. The Ki [6] was 74.1 nM, the Ki [7] was 2290 nM and the “Rel. eff h5-HT2B” value ([8]; CHO) was 0.95 ± 0.01. The Ki [9] was 1150 nM and the “Ratio c5-HT2A vs. h5-HT2A” value [10] was 1.99.

In the case of `NCCc1c[nH]c2ccc(O)cc12` [5-HT, 5-hydroxytryptamine], the “Rel. eff. h5-HT2A” value [1] is reported as 1, the “peak fluorescence intensity of Ca^2+ response” value [1] is reported as 15800 peak fluorescence intensity units and the “Ca^2+ response in non-transfected cells” value [11] is reported as “No signal”. The “Rel. eff. c5-HT2A” value [5] was 1, the “peak fluorescence intensity of Ca^2+ response” value ([5]; canine 5-HT2A, HEK-293, FIG. 5A) was 13600 peak fluorescence intensity units and the Ki [7] was 178 nM.

`CC(N)Cc1c[nH]c2ccc(OCc3cccs3)cc12` (centres unmarked) [BW-723C86, 1-{5-(2-thienyl-methoxy)-1H-3-indolyl}propan-2-amine] was tested, and the “Rel. eff. c5-HT2B” value [3] was 0.93 ± 0.03, the Ki [6] was 26.3 nM and the “Rel. eff h5-HT2B” value ([8]; CHO) was 0.98 ± 0.01.

In the case of `COc1cc(CC(C)N)c(OC)cc1I` (centres unmarked) [DOI, 1-(2,5-dimethoxy-4-iodophenyl)-2-aminopropane], the “Rel. eff. h5-HT2A” value [1] is reported as 0.65 ± 0.04, the “Rel. eff. c5-HT2B” value [3] is reported as 0.75 ± 0.03 and the Ki [4] is reported as 15.1 nM. For the same compound, the “Rel. eff. c5-HT2A” value [5] was 0.89 ± 0.02, the Ki [6] was 13.2 nM and the Ki [7] was 12 nM. The “Rel. eff h5-HT2B” value ([8]; CHO) was 0.96 ± 0.02.

`CN(C)CCO/N=C(/C=C/c1ccc(O)cc1)c1ccccc1F` [Eplivanserin, eplivanserin] showed a Kb ([1]; NIH3T3, Ca^2+ FLIPR, apparent pKB, mean ± S.E.M of 3 to 6 experiments, read-out: Antagonist affinity pKB h5-HT2A (converted)) of 0.372 nM, a Kb [3, 13] of over 10000 nM and a Ki [4, 14] of 1410 nM. It also gave a Kb ([5]; HEK-293, Ca^2+ FLIPR, apparent pKB, mean ± S.E.M of 3 to 6 experiments, read-out: Antagonist affinity pKB c5-HT2A (converted)) of 0.251 nM, a Ki [6, 15] of 1910 nM and a Ki [7] of 1 nM. It also gave a Kb [8, 16] of over 10000 nM and a Ki ([9]; read-out: Affinity constant pKI h5-HT2A (converted)) of 0.2 nM.

With `O=C(c1ccc(F)cc1)C1CCN(CCn2c(=O)[nH]c3ccccc3c2=O)CC1` [Ketanserin, ketanserin] the Kb [3] was 1580 nM, the Kb [5] was 1.26 nM and the Ki [6] was 631 nM. The Ki [7] was 14.5 nM.

In the case of `CN1C[C@@H](NS(=O)(=O)N(C)C)C[C@@H]2c3cccc4c3c(cn4C)C[C@H]21` [Mesulergine, mesulergine], the Kb [1] is reported as 58.9 nM, the Kb [3, 13] is reported as 0.501 nM and the Ki [4] is reported as 8.71 nM. For the same compound, the Kb [5] was 25.1 nM, the Ki [6, 15] was 17 nM and the Ki [7] was 91.2 nM. It also gave a Kb [8] of 2.34 nM and a Ki [9] of 22.9 nM.

For `CSc1ccc2c(c1)C(N1CCN(C)CC1)Cc1ccccc1S2` (centres unmarked) [Methiothepin, methiothepin], the “Antagonist affinity pKB c5-HT2B” value [3, 17] was 8.07 ± 0.77, the “Antagonist affinity pKB c5-HT2A” value [5, 17] was 8.33 ± 0.09 and the “antagonist affinity for canine 5-HT2A receptor compared to human 5-HT2A receptor” value ([5]; functional Ca^2+ assay, Table 4) was “eleven-fold higher affinity”. The “Affinity constant pKI c5-HT2B” value ([6]; COS-7 membranes, head prints [^3H]-ketanserin, mean ± S.E.M of 3-8 experiments) was 8.12 ± 0.16 and the Ki [10] was 3.55 nM.

For `COc1ccc2[nH]cc(C3=CCNCC3)c2c1` [RU-24969, 5-methoxy-3(1,2,3,6-tetrahydro-4-pyridiny)-1H-indole], the Ki [6] was 12.9 nM.

With `Cc1nc2sccn2c(=O)c1CCN1CCC(=C(c2ccc(F)cc2)c2ccc(F)cc2)CC1` [Ritanserin, ritanserin] the Kb [3] was 10 nM, the Ki [4] was 4.57 nM and the Kb [5] was 7.08 nM. It also gave a Ki [6] of 3.98 nM, a Ki [7] of 7.59 nM and a Kb [8] of 5.89 nM.

For `Cc1cc(NC(=O)Nc2ccc3c(ccn3C)c2)sn1` [SB-204741, N-(1-methyl-5-in-dolyl)-N′-(3-methyl-5-isothiazolyl) urea], the Kb [3, 13] was 44.7 nM, the Ki [4, 14] was 120 nM and the Kb [5] was over 10000 nM. For the same compound, the Ki [6, 15] was 182 nM, the Ki [7] was over 10000 nM and the Kb [8, 16] was 44.7 nM.

`CN1CCc2cc(Cl)c(O)cc2[C@@H](c2ccccc2)C1` [SCH-23390, R-(+)-7-chloro-8-hydroxy-3-methyl-1-phenyl-2,3,4,5-tetrahydro(1H)-3-benzapine] was tested, and the Ki [4, 14] was 275 nM, the Ki [6, 15] was 309 nM and the Ki [7] was 16.2 nM. For the same compound, the Ki [9] was 13.5 nM.

In the case of `FC(F)(F)c1cccc(N2CCNCC2)c1` [TFMPP, N-(3-trifluoromethyl-henyl)piperazine], the “Rel. eff. h5-HT2A” value [1] is reported as 0.17 ± 0.01, the “Ratio c5-HT2B vs. h5-HT2B” value [2] is reported as 1.04 and the “agonistic response on canine 5-HT2B receptor” value ([3]; HEK-293, Ca^2+ FLIPR) is reported as “no agonistic response”. For the same compound, the “Affinity constant pKI h5-HT2B” value ([4]; CHO membranes, head: [^3H]-mesulergine, mean ± S.E.M of 3-8 experiments) was 7.40 ± 0.05, the “Rel. eff. c5-HT2A” value [5] was 0.72 ± 0.04 and the “agonist potency at canine 5-HT2A compared to human 5-HT2A” value ([5]; functional Ca^2+ assay) was “higher potencies”. The Ki [6] was 41.7 nM, the Ki [7] was 214 nM and the “Rel. eff h5-HT2B” value ([8]; CHO) was 0.49 ± 0.04. For the same compound, the Ki [9] was 87.1 nM and the “Ratio c5-HT2A vs. h5-HT2A” value [10] was 2.45.

In the case of `COC(=O)[C@@H]1[C@H]2C[C@H]3c4[nH]c5ccccc5c4CCN3C[C@@H]2CC[C@@H]1O` [Yohimbine, yohimbine], the Kb [3] is reported as 1.58 nM and the Ki [6] is reported as 81.3 nM.

For `NCCc1c[nH]c2ccc(O)cc12` [[^3H]-5-HT], the Kd [12] was 3 ± 0.6 nM.

`O=C(c1ccc(F)cc1)C1CCN(CCn2c(=O)[nH]c3ccccc3c2=O)CC1` [[^3H]-ketanserin] showed a Kd [7] of 1.3 ± 0.12 nM.

`CN1C[C@@H](NS(=O)(=O)N(C)C)C[C@@H]2c3cccc4c3c(cn4C)C[C@H]21` [[^3H]-mesulergine] gave a Kd ([6]; canine 5-HT2B, transfected COS-7 membranes, read-out: KD of radioligand) of 5.43 ± 0.69 nM.

With `Clc1cccc(N2CCNCC2)c1` [m-CPP, 1-(3-chlorophenyl)piperazine] the “Rel. eff. h5-HT2A” value [1] was 0.20 ± 0.02, the “agonistic response on canine 5-HT2B receptor” value ([3]; HEK-293, Ca^2+ FLIPR) was “no agonistic response” and the “Rel. eff. c5-HT2A” value [5] was 0.71 ± 0.04. The “agonist potency at canine 5-HT2A compared to human 5-HT2A” value ([5]; functional Ca^2+ assay) was “higher potencies”, the Ki [6] was 20.9 nM and the Ki [7] was 195 nM. For the same compound, the “Rel. eff h5-HT2B” value ([8]; CHO) was 0.55 ± 0.06.
